# Measurements: paper PMC6017193, “Structure-Based Discovery of a Series of 5H-Pyrrolo[2,3-b]pyrazine FGFR Kinase Inhibitors” (Molecules : A Journal of Synthetic Chemistry and Natural …, 2018)
# Experiments:
# Assay type in all cases: biochemical
# EPH-A2 = EPH-A2 (Homo sapiens, UniProt P29317); assay: Kinase panel profiling
# Abl = Abl (Homo sapiens, UniProt P00519); assay: Kinase panel profiling
# ErbB4 = ErbB4 (Homo sapiens, UniProt Q15303); assay: Kinase panel profiling
# FGFR1 = biological target: T1, FGFR1 (Homo sapiens, UniProt P11362); assay: ELISA kinase assay, FGFR1 enzymatic activity
# T1 construct: purchased Millipore
# T1 sequence (P11362 22-822): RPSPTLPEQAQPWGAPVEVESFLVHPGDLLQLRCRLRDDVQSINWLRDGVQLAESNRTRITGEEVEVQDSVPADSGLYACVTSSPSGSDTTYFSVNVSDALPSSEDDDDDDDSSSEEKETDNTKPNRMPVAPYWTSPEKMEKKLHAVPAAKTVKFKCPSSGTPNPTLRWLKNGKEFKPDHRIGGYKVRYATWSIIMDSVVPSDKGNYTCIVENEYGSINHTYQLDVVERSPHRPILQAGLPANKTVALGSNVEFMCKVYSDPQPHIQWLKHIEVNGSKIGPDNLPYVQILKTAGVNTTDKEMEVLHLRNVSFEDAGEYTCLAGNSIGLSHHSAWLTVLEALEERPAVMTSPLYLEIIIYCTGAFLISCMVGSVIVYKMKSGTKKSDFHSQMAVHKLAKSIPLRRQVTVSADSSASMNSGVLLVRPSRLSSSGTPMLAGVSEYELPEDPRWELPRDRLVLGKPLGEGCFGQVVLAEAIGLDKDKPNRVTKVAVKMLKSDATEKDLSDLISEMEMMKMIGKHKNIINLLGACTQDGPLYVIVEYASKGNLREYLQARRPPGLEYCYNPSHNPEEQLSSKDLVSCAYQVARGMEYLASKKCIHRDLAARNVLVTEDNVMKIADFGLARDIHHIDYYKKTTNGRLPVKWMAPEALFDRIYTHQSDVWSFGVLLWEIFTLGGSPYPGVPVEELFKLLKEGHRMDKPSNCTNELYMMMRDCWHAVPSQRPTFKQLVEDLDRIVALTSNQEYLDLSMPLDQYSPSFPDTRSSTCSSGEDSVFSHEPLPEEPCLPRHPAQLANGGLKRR
# Experimental: The effects of compounds on the activities of indicated (FGFR1 and c-Met) kinases were determined using enzyme-linked immunosorbent assays (ELISAs) with purified recombinant proteins. Briefly, 20 μg/mL poly (Glu, Tyr)4:1 (Sigma, St. Louis, MO, USA) was precoated in 96-well plates as a substrate. A 50-μL aliquot of 10 μmol/L ATP solution diluted in kinase reaction buffer (50 mmol/L HEPES (pH 7.4), 50 mmol/L MgCl2, 0.5 mmol/L MnCl2, 0.2 mmol/L Na3VO4, and 1 mmol/L DTT) was added to each well; 1 μL of various concentrations of compounds diluted in 1% DMSO (v/v) (Sigma) were then added to each reaction well. DMSO (1%, v/v) was used as the negative control. The kinase reaction was initiated by the addition of purified tyrosine kinase proteins FGFR1 (Millipore, Darmstadt, Germany) or c-Met (Millipore) diluted in 49 μL of kinase reaction buffer. After incubation for 60 min at 37 °C, the plate was washed three times with phosphate-buffered saline (PBS) containing 0.1% Tween 20 (T-PBS). Anti-phosphotyrosine (PY99) antibody (Sanra Cruz, Dallas, TX, USA) (100 μL; 1:500, diluted in 5 mg/mL bovine serum albumin (BSA) T-PBS) was then added. After a 30-min incubation at 37 °C, the plate was washed three times, and 100 μL of horseradish peroxidase-conjugated goat anti-mouse IgG (Calbiochem, Shanghai, China) (1:2000, diluted in 5 mg/mL BSA T-PBS) was added. The plate was then incubated at 37 °C for 30 min, and washed three times. A 100-μL aliquot of a solution containing 0.03% H2O2 and 2 mg/mL o-phenylenediamine in 0.1 mol/L citrate buffer (pH 5.5) was added. The reaction was terminated by the addition of 50 μL of 2 mol/L H2SO4 as the color changed, and the plate was analyzed using a multi-well spectrophotometer (SpectraMAX 190, Molecular Devices, Palo Alto, CA, USA) at 490 nm. The inhibition rate (%) was calculated using the following equation:IR = [1 − (A490/A490control)] × 100%.(1) where IR, A490, and A490control are the inhibition rate, the absorbance value of the tested compound at 490 nm, and the absorbance value of the negative control compound at 490 nm, respectively. The IC50 values were calculated from the inhibition curves in two separate experiments.
# FGFR2 = FGFR2 (Homo sapiens, UniProt P21802); assay: Kinase panel profiling
# Sequence of FGFR2 (P21802 22-821): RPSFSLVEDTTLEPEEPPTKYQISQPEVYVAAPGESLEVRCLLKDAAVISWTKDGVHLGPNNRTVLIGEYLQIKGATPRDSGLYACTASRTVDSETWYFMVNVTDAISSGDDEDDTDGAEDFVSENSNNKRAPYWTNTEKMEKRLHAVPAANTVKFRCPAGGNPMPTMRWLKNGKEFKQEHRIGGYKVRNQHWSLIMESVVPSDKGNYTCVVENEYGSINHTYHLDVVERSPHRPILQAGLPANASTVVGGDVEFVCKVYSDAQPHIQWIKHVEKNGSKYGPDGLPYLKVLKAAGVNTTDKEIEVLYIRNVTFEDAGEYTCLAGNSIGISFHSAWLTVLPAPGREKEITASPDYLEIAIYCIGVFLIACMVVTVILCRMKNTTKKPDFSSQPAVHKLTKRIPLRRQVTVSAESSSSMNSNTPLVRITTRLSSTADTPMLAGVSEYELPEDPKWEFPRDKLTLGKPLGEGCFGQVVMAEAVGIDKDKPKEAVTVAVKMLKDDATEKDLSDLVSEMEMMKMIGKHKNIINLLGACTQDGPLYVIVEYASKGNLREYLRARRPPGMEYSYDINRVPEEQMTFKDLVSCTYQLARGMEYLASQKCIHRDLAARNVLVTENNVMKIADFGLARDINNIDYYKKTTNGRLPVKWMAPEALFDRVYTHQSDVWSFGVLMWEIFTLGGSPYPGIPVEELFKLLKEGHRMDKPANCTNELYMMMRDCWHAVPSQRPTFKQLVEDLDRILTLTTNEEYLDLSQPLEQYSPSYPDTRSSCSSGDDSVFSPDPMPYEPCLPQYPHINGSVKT
# DDR2 = biological target: T2, DDR2 (Homo sapiens, UniProt Q16832); assay: Kinase panel profiling
# T2 sequence (Q16832 22-855): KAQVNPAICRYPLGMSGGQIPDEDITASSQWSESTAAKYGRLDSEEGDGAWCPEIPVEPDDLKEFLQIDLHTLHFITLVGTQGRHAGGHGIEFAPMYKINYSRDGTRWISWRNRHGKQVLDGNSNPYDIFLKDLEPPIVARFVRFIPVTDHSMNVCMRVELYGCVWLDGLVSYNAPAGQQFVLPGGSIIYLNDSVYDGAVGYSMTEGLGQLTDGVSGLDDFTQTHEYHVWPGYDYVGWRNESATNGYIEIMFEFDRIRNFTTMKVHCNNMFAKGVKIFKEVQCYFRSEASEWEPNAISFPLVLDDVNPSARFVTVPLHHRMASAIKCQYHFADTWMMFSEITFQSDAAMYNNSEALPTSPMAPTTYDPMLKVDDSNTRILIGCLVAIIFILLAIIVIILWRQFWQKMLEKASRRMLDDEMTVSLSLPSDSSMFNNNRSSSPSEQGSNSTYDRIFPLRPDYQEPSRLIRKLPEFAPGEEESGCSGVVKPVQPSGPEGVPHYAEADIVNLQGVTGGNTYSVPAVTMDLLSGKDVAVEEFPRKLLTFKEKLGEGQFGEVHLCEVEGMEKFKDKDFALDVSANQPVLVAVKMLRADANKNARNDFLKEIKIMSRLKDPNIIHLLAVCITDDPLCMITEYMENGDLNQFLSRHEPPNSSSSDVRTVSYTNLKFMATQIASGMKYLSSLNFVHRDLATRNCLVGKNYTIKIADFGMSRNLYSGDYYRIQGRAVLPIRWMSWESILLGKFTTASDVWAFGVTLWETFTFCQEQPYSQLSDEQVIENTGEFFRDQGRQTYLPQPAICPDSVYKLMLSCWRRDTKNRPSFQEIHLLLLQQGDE
# PDGFR-β = PDGFR-β (Homo sapiens, UniProt P09619); assay: Kinase panel profiling
# Sequence of PDGFR-β (P09619 33-1106, species assumed): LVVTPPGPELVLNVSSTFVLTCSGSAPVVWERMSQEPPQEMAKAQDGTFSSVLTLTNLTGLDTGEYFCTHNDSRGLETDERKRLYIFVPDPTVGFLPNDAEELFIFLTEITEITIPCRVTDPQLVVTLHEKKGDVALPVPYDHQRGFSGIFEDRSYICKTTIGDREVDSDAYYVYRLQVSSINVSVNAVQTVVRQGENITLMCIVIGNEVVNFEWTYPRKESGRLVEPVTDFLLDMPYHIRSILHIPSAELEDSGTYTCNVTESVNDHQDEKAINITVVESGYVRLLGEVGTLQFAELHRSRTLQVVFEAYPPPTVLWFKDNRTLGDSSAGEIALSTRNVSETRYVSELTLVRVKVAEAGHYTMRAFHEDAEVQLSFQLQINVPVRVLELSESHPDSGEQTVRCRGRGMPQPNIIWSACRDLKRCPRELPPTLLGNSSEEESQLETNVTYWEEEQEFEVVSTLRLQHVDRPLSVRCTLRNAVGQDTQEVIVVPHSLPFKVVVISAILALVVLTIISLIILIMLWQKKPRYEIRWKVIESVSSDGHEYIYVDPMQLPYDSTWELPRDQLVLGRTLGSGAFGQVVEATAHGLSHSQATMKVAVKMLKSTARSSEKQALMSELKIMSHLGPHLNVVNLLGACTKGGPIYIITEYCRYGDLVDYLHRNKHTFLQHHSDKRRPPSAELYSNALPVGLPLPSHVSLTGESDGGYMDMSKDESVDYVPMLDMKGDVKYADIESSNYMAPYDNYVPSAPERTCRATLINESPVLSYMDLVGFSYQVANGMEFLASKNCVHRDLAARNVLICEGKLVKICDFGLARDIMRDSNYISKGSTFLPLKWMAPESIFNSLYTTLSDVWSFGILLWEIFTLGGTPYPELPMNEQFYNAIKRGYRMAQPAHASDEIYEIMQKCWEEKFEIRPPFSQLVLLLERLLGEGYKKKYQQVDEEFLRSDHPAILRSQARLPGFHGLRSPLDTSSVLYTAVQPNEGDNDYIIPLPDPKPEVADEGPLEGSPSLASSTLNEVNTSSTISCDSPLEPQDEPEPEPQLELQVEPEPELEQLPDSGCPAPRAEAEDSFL
# FGFR3 = FGFR3 (Homo sapiens, UniProt P22607); assay: Kinase panel profiling
# IGF1R = IGF1R (Homo sapiens, UniProt P08069); assay: Kinase panel profiling
# Sequence of IGF1R (P08069 31-1367, species assumed): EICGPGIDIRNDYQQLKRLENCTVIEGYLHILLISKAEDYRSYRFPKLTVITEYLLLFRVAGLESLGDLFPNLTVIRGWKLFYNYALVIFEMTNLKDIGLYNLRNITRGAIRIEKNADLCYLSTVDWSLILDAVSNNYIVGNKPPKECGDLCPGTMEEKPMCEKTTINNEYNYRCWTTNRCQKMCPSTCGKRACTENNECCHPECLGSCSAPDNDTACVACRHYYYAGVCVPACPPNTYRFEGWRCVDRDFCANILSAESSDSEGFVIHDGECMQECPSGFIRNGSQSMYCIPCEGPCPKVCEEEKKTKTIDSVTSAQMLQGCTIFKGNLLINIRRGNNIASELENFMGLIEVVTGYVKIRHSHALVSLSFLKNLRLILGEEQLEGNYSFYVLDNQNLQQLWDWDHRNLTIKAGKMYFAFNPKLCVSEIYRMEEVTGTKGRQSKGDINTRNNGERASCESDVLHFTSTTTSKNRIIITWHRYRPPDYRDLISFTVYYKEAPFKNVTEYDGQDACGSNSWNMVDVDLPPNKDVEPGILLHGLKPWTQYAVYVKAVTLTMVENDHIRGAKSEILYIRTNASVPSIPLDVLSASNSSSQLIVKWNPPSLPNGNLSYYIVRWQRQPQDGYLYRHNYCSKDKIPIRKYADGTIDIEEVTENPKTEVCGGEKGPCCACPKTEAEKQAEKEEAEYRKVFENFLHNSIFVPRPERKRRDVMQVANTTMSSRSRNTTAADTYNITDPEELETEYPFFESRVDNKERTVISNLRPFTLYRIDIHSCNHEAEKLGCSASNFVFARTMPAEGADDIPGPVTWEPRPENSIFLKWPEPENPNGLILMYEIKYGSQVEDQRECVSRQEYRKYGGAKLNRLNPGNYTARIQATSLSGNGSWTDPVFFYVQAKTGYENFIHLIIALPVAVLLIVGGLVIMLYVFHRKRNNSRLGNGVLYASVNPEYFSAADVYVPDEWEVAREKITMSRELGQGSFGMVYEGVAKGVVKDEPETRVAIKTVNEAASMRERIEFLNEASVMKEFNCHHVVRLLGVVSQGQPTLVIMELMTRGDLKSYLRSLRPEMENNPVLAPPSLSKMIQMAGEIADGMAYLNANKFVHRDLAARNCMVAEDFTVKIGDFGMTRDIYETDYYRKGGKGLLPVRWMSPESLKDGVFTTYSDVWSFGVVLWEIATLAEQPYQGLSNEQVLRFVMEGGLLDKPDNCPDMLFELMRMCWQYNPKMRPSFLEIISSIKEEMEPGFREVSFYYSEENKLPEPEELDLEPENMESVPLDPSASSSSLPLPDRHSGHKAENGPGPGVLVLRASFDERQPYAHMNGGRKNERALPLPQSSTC
# ROS1 = ROS1 (Homo sapiens, UniProt P08922); assay: Kinase panel profiling
# Sequence of EPH-A2 (P29317 24-976, species assumed): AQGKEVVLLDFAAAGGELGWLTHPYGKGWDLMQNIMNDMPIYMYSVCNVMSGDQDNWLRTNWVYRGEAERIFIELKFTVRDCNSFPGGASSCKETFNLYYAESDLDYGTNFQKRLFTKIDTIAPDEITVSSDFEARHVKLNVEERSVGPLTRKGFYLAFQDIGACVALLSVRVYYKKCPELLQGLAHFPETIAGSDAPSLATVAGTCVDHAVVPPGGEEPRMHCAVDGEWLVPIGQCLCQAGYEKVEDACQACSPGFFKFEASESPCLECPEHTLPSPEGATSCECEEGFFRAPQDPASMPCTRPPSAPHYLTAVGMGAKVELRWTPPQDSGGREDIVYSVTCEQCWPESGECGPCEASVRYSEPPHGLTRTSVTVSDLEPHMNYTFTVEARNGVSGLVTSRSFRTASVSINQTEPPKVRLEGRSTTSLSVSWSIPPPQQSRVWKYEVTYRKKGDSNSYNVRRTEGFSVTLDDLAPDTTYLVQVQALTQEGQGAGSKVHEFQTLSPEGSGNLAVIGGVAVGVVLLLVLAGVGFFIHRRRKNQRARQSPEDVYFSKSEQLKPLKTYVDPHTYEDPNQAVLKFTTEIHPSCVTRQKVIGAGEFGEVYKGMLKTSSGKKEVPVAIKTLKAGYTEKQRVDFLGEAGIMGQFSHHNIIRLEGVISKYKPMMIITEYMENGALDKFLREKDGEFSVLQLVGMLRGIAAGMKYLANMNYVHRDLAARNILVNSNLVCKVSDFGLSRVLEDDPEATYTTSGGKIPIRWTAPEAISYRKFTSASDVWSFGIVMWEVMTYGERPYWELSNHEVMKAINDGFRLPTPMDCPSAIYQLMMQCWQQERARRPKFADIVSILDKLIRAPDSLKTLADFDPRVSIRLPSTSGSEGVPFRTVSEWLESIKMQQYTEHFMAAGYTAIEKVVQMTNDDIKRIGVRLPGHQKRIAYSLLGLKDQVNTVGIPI
smiles,measurement,setting,value
"O=S(=O)(c1cn(CCF)cn1)n1ccc2ncc(-c3cn[nH]c3)nc21 [Compound 13, 5-((1-(2-fluoroethyl)-1H-imidazol-4-yl)sulfonyl)-3-(1H-pyrazol-4-yl)-5H-pyrrolo[2,3-b]pyrazine]",inhibition at 0.01 µM,EPH-A2; 10 nM,0%
same,inhibition at 0.1 µM,EPH-A2; 100 nM,0%
same,inhibition at 1 µM,EPH-A2; 1000 nM,0%
same,inhibition at 0.01 µM,Abl; 10 nM,0%
same,inhibition at 0.1 µM,Abl; 100 nM,0%
same,inhibition at 1 µM,Abl; 1000 nM,0%
same,inhibition at 0.01 µM,ErbB4; 10 nM,0%
same,inhibition at 0.1 µM,ErbB4; 100 nM,0%
same,inhibition at 1 µM,ErbB4; 1000 nM,3%
same,inhibition at 0.01 µM,"FGFR1; 0.01 μM (10 nM), mean of two separate experiments",> 90%
same,inhibition at 0.1 µM,"FGFR1; 0.1 μM, mean of two separate experiments",91.7%
same,inhibition at 1 µM,"FGFR1; 1 μM, mean of two separate experiments",100%
same,IC50,FGFR1; mean ± SD from two separate experiments,0.6 ± 0.2 nM
same,inhibition at 0.01 µM,FGFR2; 10 nM,60.9%
same,inhibition at 0.1 µM,FGFR2; 100 nM,92%
same,inhibition at 1 µM,FGFR2; 1000 nM,97.2%
same,inhibition at 0.01 µM,DDR2; 10 nM,3.6%
same,inhibition at 0.1 µM,DDR2; 100 nM,0.9%
same,inhibition at 1 µM,DDR2; 1000 nM,4.6%
same,inhibition at 0.01 µM,PDGFR-β; 10 nM,12.8%
same,inhibition at 0.1 µM,PDGFR-β; 100 nM,30.1%
same,inhibition at 1 µM,PDGFR-β; 1000 nM,58.6%
same,inhibition at 0.01 µM,FGFR3; 10 nM,42.9%
same,inhibition at 0.1 µM,FGFR3; 100 nM,79%
same,inhibition at 1 µM,FGFR3; 1000 nM,88.9%
same,inhibition at 0.01 µM,IGF1R; 10 nM,-3.8%
same,inhibition at 0.1 µM,IGF1R; 100 nM,3%
same,inhibition at 1 µM,IGF1R; 1000 nM,11.8%
same,inhibition at 0.01 µM,ROS1; 10 nM,-3.8%
same,inhibition at 0.1 µM,ROS1; 100 nM,3%
same,inhibition at 1 µM,ROS1; 1000 nM,11.8%
